# From ChEMBL document CHEMBL3588760, “Inhibitors of melanogenesis in B16 melanoma 4A5 cells from flower buds of Lawsonia inermis (Henna)” (Bioorg Med Chem Lett, 2015)
# Key:
# [1] = Inhibition of melanogenesis in theophylline-stimulated mouse B16-4A5 cells at 3 uM after 72 hrs by microplate reader analysis relative to control; format: functional; details: B16-4A5, 72 h
# [2] = Cytotoxicity against mouse B16-4A5 cells assessed as cell viability at 1 uM after 70 hrs by WST-8 assay relative to control; format: cell-based; details: read-out: Activity
# [3] = Inhibition of melanogenesis in theophylline-stimulated mouse B16-4A5 cells at 10 uM after 72 hrs by microplate reader analysis relative to control; format: functional; details: B16-4A5, 72 h
# [4] = molecular target: Plasminogen (Homo sapiens) (UniProt P00747); assay: Inhibition of plasmin (unknown origin) at 100 uM after 18 hrs by arianor mahogany dye-based fibrin plate assay relative to control
# [5] = Cytotoxicity against mouse B16-4A5 cells assessed as cell viability at 3 uM after 70 hrs by WST-8 assay relative to control; format: cell-based; details: read-out: Activity
# [6] = Cytotoxicity against mouse B16-4A5 cells assessed as cell viability at 10 uM after 70 hrs by WST-8 assay relative to control; format: cell-based; details: read-out: Activity
# [7] = Inhibition of melanogenesis in theophylline-stimulated mouse B16-4A5 cells at 1 uM after 72 hrs by microplate reader analysis relative to control; format: functional; details: B16-4A5, 72 h
# [8] = Downregulation of tyrosinase mRNA expression in theophylline-stimulated mouse B16-4A5 cells assessed as ratio of tyrosinase mRNA to beta-actin mRNA level at 30 uM after 72 hrs by qPCR analysis; format: functional, cell-based
# [9] = Downregulation of TRP-1 mRNA expression in theophylline-stimulated mouse B16-4A5 cells assessed as ratio of TRP-1 mRNA to beta-actin mRNA level at 10 uM after 72 hrs by qPCR analysis; format: functional, cell-based
# [10] = Inhibition of melanogenesis in theophylline-stimulated mouse B16-4A5 cells at 30 uM after 72 hrs by microplate reader analysis relative to control; format: functional; details: B16-4A5, 72 h
# [11] = Downregulation of TRP-1 mRNA expression in theophylline-stimulated mouse B16-4A5 cells assessed as ratio of TRP-1 mRNA to beta-actin mRNA level at 3 uM after 72 hrs by qPCR analysis; format: functional, cell-based
# [12] = Cytotoxicity against mouse B16-4A5 cells assessed as cell viability at 100 uM after 70 hrs by WST-8 assay relative to control; format: cell-based; details: read-out: Activity
# [13] = Downregulation of TRP-2 mRNA expression in theophylline-stimulated mouse B16-4A5 cells assessed as ratio of TRP-2 mRNA to beta-actin mRNA level at 30 uM after 72 hrs by qPCR analysis; format: functional, cell-based
# [14] = Downregulation of TRP-1 mRNA expression in theophylline-stimulated mouse B16-4A5 cells assessed as ratio of TRP-1 mRNA to beta-actin mRNA level at 30 uM after 72 hrs by qPCR analysis; format: functional, cell-based
# [15] = Cytotoxicity against mouse B16-4A5 cells assessed as cell viability at 30 uM after 70 hrs by WST-8 assay relative to control; format: cell-based; details: read-out: Activity
# [16] = Downregulation of TRP-2 mRNA expression in theophylline-stimulated mouse B16-4A5 cells assessed as ratio of TRP-2 mRNA to beta-actin mRNA level at 3 uM after 72 hrs by qPCR analysis; format: functional, cell-based
# [17] = Downregulation of TRP-2 mRNA expression in theophylline-stimulated mouse B16-4A5 cells assessed as ratio of TRP-2 mRNA to beta-actin mRNA level at 10 uM after 72 hrs by qPCR analysis; format: functional, cell-based
# [18] = Downregulation of tyrosinase mRNA expression in theophylline-stimulated mouse B16-4A5 cells assessed as ratio of tyrosinase mRNA to beta-actin mRNA level at 10 uM after 72 hrs by qPCR analysis; format: functional, cell-based
# [19] = Inhibition of melanogenesis in theophylline-stimulated mouse B16-4A5 cells at 100 uM after 72 hrs by microplate reader analysis relative to control; format: functional; details: B16-4A5, 72 h
# [20] = Downregulation of tyrosinase mRNA expression in theophylline-stimulated mouse B16-4A5 cells assessed as ratio of tyrosinase mRNA to beta-actin mRNA level at 3 uM after 72 hrs by qPCR analysis; format: functional, cell-based
# [21] = molecular target: T1, Tyrosinase (Agaricus bisporus) (UniProt O42713); assay: Inhibition of mushroom tyrosinase using L-DOPA as substrate assessed as dopaquinone production at 100 uM after 5 mins by microplate reader analysis relative to control
# T1 sequence (whole entry): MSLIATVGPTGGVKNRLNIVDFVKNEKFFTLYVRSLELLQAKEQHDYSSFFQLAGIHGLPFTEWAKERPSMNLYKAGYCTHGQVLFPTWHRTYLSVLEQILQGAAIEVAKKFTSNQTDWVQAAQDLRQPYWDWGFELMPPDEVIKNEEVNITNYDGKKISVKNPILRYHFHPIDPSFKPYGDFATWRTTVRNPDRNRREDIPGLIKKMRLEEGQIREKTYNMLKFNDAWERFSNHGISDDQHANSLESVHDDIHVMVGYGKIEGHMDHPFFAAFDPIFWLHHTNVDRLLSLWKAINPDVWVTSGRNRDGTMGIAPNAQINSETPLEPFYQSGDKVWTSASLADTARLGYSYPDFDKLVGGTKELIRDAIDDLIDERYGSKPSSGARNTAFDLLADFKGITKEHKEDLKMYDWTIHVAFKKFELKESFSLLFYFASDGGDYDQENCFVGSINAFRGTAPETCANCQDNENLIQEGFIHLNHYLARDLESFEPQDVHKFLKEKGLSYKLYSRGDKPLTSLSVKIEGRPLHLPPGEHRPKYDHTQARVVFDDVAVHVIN
# Plasminogen (Homo sapiens), sequence (P00747 97-580 limits assumed): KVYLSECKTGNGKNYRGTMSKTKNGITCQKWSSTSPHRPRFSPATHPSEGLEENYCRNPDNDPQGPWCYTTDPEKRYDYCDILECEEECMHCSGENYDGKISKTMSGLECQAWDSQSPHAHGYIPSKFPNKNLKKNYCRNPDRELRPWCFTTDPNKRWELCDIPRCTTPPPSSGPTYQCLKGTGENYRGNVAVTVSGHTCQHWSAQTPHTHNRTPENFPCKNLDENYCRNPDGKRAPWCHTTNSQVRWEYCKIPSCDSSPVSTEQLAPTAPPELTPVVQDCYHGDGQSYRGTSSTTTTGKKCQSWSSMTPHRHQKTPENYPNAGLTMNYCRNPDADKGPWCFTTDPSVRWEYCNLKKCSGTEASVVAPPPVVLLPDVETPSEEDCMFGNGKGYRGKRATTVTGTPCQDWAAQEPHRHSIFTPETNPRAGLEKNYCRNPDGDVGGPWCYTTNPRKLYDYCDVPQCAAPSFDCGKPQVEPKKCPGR
# Plasminogen (Homo sapiens), sequence (P00747 581-810 limits assumed): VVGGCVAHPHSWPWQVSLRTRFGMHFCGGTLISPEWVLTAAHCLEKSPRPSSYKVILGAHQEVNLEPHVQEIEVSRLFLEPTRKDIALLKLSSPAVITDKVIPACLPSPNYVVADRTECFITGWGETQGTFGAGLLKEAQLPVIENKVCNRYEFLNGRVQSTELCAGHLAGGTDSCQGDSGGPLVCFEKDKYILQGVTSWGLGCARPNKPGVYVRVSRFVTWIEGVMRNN
SMILES,inhibition at 3 µM [1],"viability at 70 h, 1 µM [2]",inhibition at 10 µM [3],inhibition [4],"viability at 70 h, 3 µM [5]","viability at 70 h, 10 µM [6]",inhibition at 1 µM [7],Ratio [8],Ratio [9],inhibition at 30 µM [10],Ratio [11],"viability at 70 h, 100 µM [12]",Ratio [13],Ratio [14],"viability at 70 h, 30 µM [15]",Ratio [16],Ratio [17],Ratio [18],inhibition at 100 µM [19],inhibition [21],other results
COc1ccc(-c2oc3cc(O)cc(O)c3c(=O)c2O[C@@H]2O[C@H](CO)[C@@H](O)[C@H](O)[C@H]2O)cc1O,3.3%,93.4%,-10.7%,33.1%,91.3%,86.2%,7.7%,,,,,,,,,,,,,,
COc1ccc(-c2cc(=O)c3c(O)cc(O)cc3o2)cc1O[C@@H]1O[C@H](CO)[C@@H](O)[C@H](O)[C@H]1O,18%,92.8%,40.6%,28.5%,91.4%,94.5%,6.3%,1.09,1.08,44.1%,0.85,66.2%,0.93,0.77,79.4%,1.08,0.92,0.99,61.5%,,Ratio [20]: 1.22
O=c1cc(-c2ccc(O[C@@H]3O[C@H](CO)[C@@H](O)[C@H](O)[C@H]3O)c(O)c2)oc2cc(O)cc(O)c12,31%,99.6%,38.6%,41.7%,105%,114%,27.7%,,,,,,,,,,,,,4.4%,
NC[C@H]1CC[C@H](C(=O)O)CC1,,,,9.5%,,,,,,,,,,,,,,,,,
O=C1CC(c2ccc(O)c(O)c2)Oc2cc(O)cc(O)c21 (racemic),10.3%,108%,37.2%,20.7%,101%,88.2%,5.8%,0.38,0.36,42.5%,0.94,55.9%,0.43,0.29,72.6%,0.67,0.55,0.66,61.1%,3.1%,Ratio [20]: 0.97
O=c1cc(-c2ccc(O)c(O)c2)oc2cc(O[C@@H]3O[C@H](CO)[C@@H](O)[C@H](O)[C@H]3O)cc(O)c12 [GALUTEOLIN],14%,101%,45.1%,61%,104%,103%,14.8%,,,11%,,57.6%,,,85.5%,,,,15.1%,,
O=c1c(O[C@@H]2O[C@H](CO)[C@@H](O)[C@H](O)[C@H]2O)c(-c2ccc(O)c(O)c2)oc2cc(O)cc(O)c12 [ISOQUERCETIN],33.2%,99.8%,20.7%,-2.5%,100%,95.4%,16.7%,,,23.2%,,76.3%,,,87%,,,,20.7%,5%,
O=c1cc(-c2ccc(O)c(O)c2)oc2cc(O)cc(O)c12 [LUTEOLIN],13.5%,103%,38.1%,28.7%,102%,77.2%,6.2%,0.46,0.86,76.7%,0.93,12.6%,0.82,0.83,63.8%,0.9,0.89,0.74,,33.5%,Ratio [20]: 0.72
O=c1c(O)c(-c2ccc(O)c(O)c2)oc2cc(O)cc(O)c12 [QUERCETIN],17.1%,104%,34.3%,30.2%,103%,106%,13.9%,0.45,0.68,72.5%,0.68,,0.59,0.7,89.1%,0.81,0.72,0.55,,,Ratio [20]: 0.56
O=c1c(O)c(-c2ccc(O[C@@H]3O[C@H](CO)[C@@H](O)[C@H](O)[C@H]3O)c(O)c2)oc2cc(O)cc(O)c12 [SPIRAEOSIDE],24.4%,105%,31.4%,51%,107%,106%,22.4%,,,34.7%,,74%,,,95.8%,,,,21.4%,70.7%,
COc1ccc(-c2cc(=O)c3c(O)cc(O[C@@H]4O[C@H](CO)[C@@H](O)[C@H](O)[C@H]4O)cc3o2)cc1 [TILIANINE],-1.1%,93.2%,-36.6%,-8.1%,98.3%,74.2%,-5.9%,,,,,,,,,,,,,5.3%,
